Measurements published in ChEMBL document CHEMBL1123145, “Synthesis of pyrrolizidine alkaloids indicine, intermedine, lycopsamine, and analogues and their N-oxides. Potential antitumor agents” (1985).

Key:
Type in all cases: functional, Mus musculus
P388 [1] = assay: Survival rate of the animals determined for antitumor activity against P388 Lymphocytic Leukemia system at a dose of 35 mg/kg
P388 [2] = assay: Number of Survivors determined for antitumor activity against P388 Lymphocytic Leukemia system on day 5 at a dose of 70 mg/kg(6 out of 6)
P388 [3] = assay: Number of Survivors determined for antitumor activity against P388 Lymphocytic Leukemia system on day 5 at a dose of 35 mg/kg (6 out of 6)
P388 [4] = assay: Weight difference observed in survivors treated for antitumor activity against P388 Lymphocytic Leukemia system at a dose of 70 mg/kg
P388 [5] = assay: Number of Survivors determined for antitumor activity against P388 Lymphocytic Leukemia system on day 5 at a dose of 17.5 mg/kg (6 out of 6)
P388 [6] = assay: Survival rate of the animals determined for antitumor activity against P388 Lymphocytic Leukemia system at a dose of 70 mg/kg
P388 [7] = assay: Survival rate of the animals determined for antitumor activity against P388 Lymphocytic Leukemia system at a dose of 17.5 mg/kg
P388 [8] = assay: Number of Survivors determined for antitumor activity against P388 Lymphocytic Leukemia system on day 5 at a dose of 8.75 mg/kg(6 out of 6)
P388 [9] = assay: Weight difference observed in survivors treated for antitumor activity against P388 Lymphocytic Leukemia system at a dose of 17.5 mg/kg
P388 [10] = assay: Weight difference observed in survivors treated for antitumor activity against P388 Lymphocytic Leukemia system at a dose of 8.75 mg/kg
P388 [11] = assay: Weight difference observed in survivors treated for antitumor activity against P388 Lymphocytic Leukemia system at a dose of 35 mg/kg
P388 [12] = assay: Survival rate of the animals determined for antitumor activity against P388 Lymphocytic Leukemia system at a dose of 8.75 mg/kg
P388 [13] = assay: Weight difference observed in survivors treated for antitumor activity against P388 Lymphocytic Leukemia system at a dose of 24 mg/kg
P388 [14] = assay: Weight difference observed in survivors treated for antitumor activity against P388 Lymphocytic Leukemia system at a dose of 96 mg/kg
P388 [15] = assay: Weight difference observed in survivors treated for antitumor activity against P388 Lymphocytic Leukemia system at a dose of 48 mg/kg
P388 [16] = assay: Survival rate of the animals determined for antitumor activity against P388 Lymphocytic Leukemia system at a dose of 192 mg/kg
P388 [17] = assay: Survival rate of the animals determined for antitumor activity against P388 Lymphocytic Leukemia system at a dose of 48 mg/kg
P388 [18] = assay: Survival rate of the animals determined for antitumor activity against P388 Lymphocytic Leukemia system at a dose of 24 mg/kg
P388 [19] = assay: Survival rate of the animals determined for antitumor activity against P388 Lymphocytic Leukemia system at a dose of 96 mg/kg

SMILES | T/C (P388 [1]) [%] | Survivors (P388 [2]) | Survivors (P388 [3]) | T-C (P388 [4]) | Survivors (P388 [5]) | T/C (P388 [6]) [%] | T/C (P388 [7]) [%] | Survivors (P388 [8]) | T-C (P388 [9]) | T-C (P388 [10]) | T-C (P388 [11]) | T/C (P388 [12]) [%] | T-C (P388 [13]) | T-C (P388 [14]) | T-C (P388 [15]) | T/C (P388 [16]) [%] | T/C (P388 [17]) [%] | T/C (P388 [18]) [%] | T/C (P388 [19]) [%]
O=C(OCC1=CC[N+]2([O-])CC[C@@H](O)C12)c1ccccc1 (some centres undefined) | 109 | 6 | 6 | -1 | 6 | 118 | 110 | 6 | -0.7 | -0.4 | -0.1 | 107 | – | – | – | – | – | – | –
CC(C)C(O)(C(=O)OCC1=CC[N+]2([O-])CC[C@@H](O)C12)C(C)O (stereo in doubt; form 1) | – | – | – | – | – | – | – | – | – | – | – | – | 0 | -0.3 | -0.6 | 123 | 114 | 107 | 114
